# According to patent US20130131075A1, “NEW COMPOUNDS” (Boehringer Ingelheim International GmbH, priority 2009, published 2013):
# Biological target: T1, cynomolgus BK1-receptor (Macaca fascicularis, UniProt Q3BCU0)
# T1 construct: expressed in transfected cells; host or cells: CHO cells (homogenate)
# T1 sequence (Q3BCU0 1-352): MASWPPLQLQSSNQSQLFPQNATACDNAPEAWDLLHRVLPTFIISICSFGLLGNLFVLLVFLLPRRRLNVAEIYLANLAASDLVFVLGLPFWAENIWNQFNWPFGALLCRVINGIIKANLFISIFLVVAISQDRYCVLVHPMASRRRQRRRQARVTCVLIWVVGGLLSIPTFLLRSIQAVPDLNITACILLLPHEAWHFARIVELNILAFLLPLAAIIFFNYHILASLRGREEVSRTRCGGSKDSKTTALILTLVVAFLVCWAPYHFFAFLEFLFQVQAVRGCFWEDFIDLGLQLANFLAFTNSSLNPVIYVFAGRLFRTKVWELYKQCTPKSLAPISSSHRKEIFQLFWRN
# Assay: cynoBK1-receptor binding assay
# Details: CHO cells expressing cynomolgus BK1-receptor, radioligand kallidine (DesArg10,Leu9); for inhibition at 10 µM: at 10 μgmol/L
# Experimental: Description of the Method of Binding the cynoBK1-Receptor
# CHO cells that express the cynomolgus BK1-receptor are cultivated in “HAM'S F-12 Medium”. The medium is removed from confluent cultures, the cells are washed with PBS buffer, scraped off or detached using Versene and isolated by centrifuging. Then the cells are homogenised in suspension, the homogenate is centrifuged and resuspended. After the protein content has been determined 200 μl of the homogenate (50 to 250 μg protein/assay) are incubated for 60-180 minutes at ambient temperature with 0.5 to 5.0 nM kallidine (DesArg10,Leu9), [3,4-Prolyl-3,43H(N)] and increasing concentrations of the test substance in a total volume of 250 μl. The incubation is stopped by rapid filtration through GF/B glass fibre filters that have been pre-treated with polyethyleneimine (0.3%). The radioactivity bound to the protein is measured with a TopCount NXT. The radioactivity bound in the presence of 1.0 μM kallidine (DesArg10) is defined as non-specific binding. The concentration binding curve may be analysed using computer-aided non-linear curve fitting to determine the corresponding Ki value for the test substance.
# Test results of the cynoBK1-receptor binding assay: […]
Compound,Ki [nM],inhibition at 10 µM [%]
Nc1cncc(C(=O)N[C@@]2(C(=O)NCc3ncc(Nc4ccc(F)cc4C(F)(F)F)cc3Cl)CCOC2)c1 [(219)],8.9,
Cc1ncc(C(=O)NC2(C(=O)NCc3ncc(Nc4c(F)cccc4C(F)(F)F)cc3F)CC2)cn1 [(134)],4.7,101
O=C(N[C@@]1(C(=O)NCc2ccc(Nc3ccccc3C(F)(F)F)cc2)CCOC1)c1cccnn1 [(74)],,56
Nc1ccc(C(=O)N[C@@]2(C(=O)NCc3ncc(Nc4ccc(F)cc4C(F)(F)F)cc3F)CCOC2)cn1 [(348)],31,
O=C(N[C@@]1(C(=O)NCc2ncc(Nc3ccc(Cl)cc3C(F)(F)F)cc2F)CCOC1)c1cncnc1 [(242)],15,
O=C(NC1(C(=O)NCc2ccc(Nc3ccc(Br)cc3C(F)(F)F)cn2)CC1)c1cncc(O)c1 [(141)],7.6,100
O=C(N[C@@]1(C(=O)NCc2ccc(Nc3ccccc3C(F)(F)F)cc2)CCOC1)c1ccco1 [(94)],,57
Cc1ncc(C(=O)N[C@@]2(C(=O)NCc3ccc(Nc4ccc(F)cc4C(F)(F)F)cc3)CCOC2)cn1 [(288)],9.1,
O=C(N[C@@]1(C(=O)NCc2ccc(Nc3ccc(Cl)cc3C(F)(F)F)cc2)CCOC1)c1cnc2[nH]ccc2c1 [(388)],386,
Nc1ccc(C(=O)NC2(C(=O)NCc3ccc(Nc4ccc(Cl)cc4C(F)(F)F)cn3)CC2)cn1 [(206)],5.1,
Nc1ccc(C(=O)N[C@@]2(C(=O)NCc3ccc(Nc4ccc(F)cc4C(F)(F)F)cc3)CCOC2)cn1 [(309)],184,
O=C(N[C@@]1(C(=O)NCc2ncc(Nc3ccc(Cl)cc3C(F)(F)F)cc2Cl)CCOC1)c1cncnc1 [(278)],16,
O=C(NC1(C(=O)NCc2ccc(Nc3ccccc3C(F)(F)F)cc2)CC1)c1ccccc1 [(20)],,81
Cn1ccc(C(=O)NC2(C(=O)NCc3ncc(Nc4c(F)cccc4C(F)(F)F)cc3F)CC2)cc1=O [(132)],180,98
CNc1ncc(C(=O)NC2(C(=O)NCc3ccc(Nc4ccc(Cl)cc4C(F)(F)F)cn3)CC2)cn1 [(145)],2.8,99
Nc1nc2cc(C(=O)NC3(C(=O)NCc4ccc(Nc5ccc(Cl)cc5C(F)(F)F)cn4)CC3)ccc2[nH]1 [(265)],75,
CCNC(=O)NC1(C(=O)NCc2ccc(Nc3ccccc3C(F)(F)F)cc2)CC1 [(108)],135,101
O=C(NC1(C(=O)NCc2ncc(Nc3c(F)cccc3C(F)(F)F)cc2F)CC1)c1cccc(O)n1 [(136)],42,104
Nc1cncc(C(=O)N[C@@]2(C(=O)NCc3ccc(Nc4ccc(Cl)cc4C(F)(F)F)cn3)CCOC2)c1 [(226)],157,
CNc1ncc(C(=O)NC2(C(=O)NCc3ccc(Nc4ccc(F)cc4C#N)cc3)CC2)cn1 [(183)],21,100
O=C(NC1(C(=O)NCc2ccc(Nc3ccc(Cl)cc3C(F)(F)F)cn2)CC1)c1ccns1 [(357)],44,
CNc1ncc(C(=O)NC2(C(=O)NCc3ncc(Nc4c(F)cccc4C(F)(F)F)cc3F)CC2)cn1 [(133)],,101
Nc1cncc(C(=O)NC2(C(=O)NCc3ccc(Nc4ccc(F)cc4C(F)(F)F)cn3)CC2)c1 [(142)],12,106
O=C(NC1(C(=O)NCc2ncc(Nc3ccc(F)cc3C(F)(F)F)cc2Cl)CC1)c1cncnc1 [(187)],,100
COc1ccc(C(=O)NC2(C(=O)NCc3ccc(Nc4ccc(Br)cc4C(F)(F)F)cn3)CC2)cn1 [(235)],489,
Cc1cc(Nc2ccccc2C(F)(F)F)cnc1CNC(=O)C1(NC(=O)c2cncc(N)c2)CC1 [(375)],48,
Nc1cncc(C(=O)N[C@@]2(C(=O)NCc3ccc(Nc4ccccc4C(F)(F)F)cc3F)CCOC2)c1 [(236)],8.2,

# The next lines start with the values.
Ki [nM],inhibition at 10 µM [%],Compound
17,104,N#Cc1cc(Cl)ccc1Nc1ccc(CNC(=O)C2(NC(=O)c3cncnc3)CC2)cc1 [(162)]
,100,CC(C(=O)N[C@@]1(C(=O)NCc2ccc(Nc3ccccc3C(F)(F)F)cc2)CCOC1)C(F)(F)F (some centres unmarked) [(91)]
9.4,,N#Cc1ncc(C(=O)NC2(C(=O)NCc3ccc(Nc4ccc(Cl)cc4C(F)(F)F)cn3)CC2)cn1 [(385)]
,59,CN(C)CCCC(=O)NC1(C(=O)NCc2ccc(Nc3ccccc3C(F)(F)F)cc2)CC1 [(6)]
1.1,,Cc1ncc(C(=O)NC2(C(=O)NCc3ncc(Nc4ccccc4C(F)(F)F)cc3Cl)CC2)cn1 [(301)]
25,,CNc1cncc(C(=O)NC2(C(=O)NCc3ccc(Nc4ccc(Cl)cc4C(F)(F)F)cn3)CC2)c1 [(280)]
,113,COc1ncc(C(=O)N[C@@]2(C(=O)NCc3ccc(Nc4ccccc4C(F)(F)F)cc3)CCOC2)cn1 [(81)]
> 500,83,N#Cc1cccc(F)c1Nc1ccc(CNC(=O)C2(NC(=O)c3cncnc3)CC2)cc1 [(116)]
35,,CCCNc1ccc(C(=O)NC2(C(=O)NCc3ccc(Nc4ccc(Cl)cc4C(F)(F)F)cn3)CC2)cn1 [(330)]
11,107,COc1ncc(C(=O)NC2(C(=O)NCc3ncc(Nc4c(F)cccc4C(F)(F)F)cc3F)CC2)cn1 [(129)]
,82,Cc1nc(N)sc1C(=O)NC1(C(=O)NCc2ccc(Nc3ccc(F)cc3C(F)(F)F)cn2)CC1 [(186)]
394,,CNc1cncc(C(=O)N[C@@]2(C(=O)NCc3ncc(Nc4c(F)cccc4C(F)(F)F)cc3Cl)CCOC2)c1 [(259)]
,110,O=C(NC1(C(=O)NCc2ccc(Nc3ccccc3C(F)(F)F)cc2)CC1)C(F)(F)F [(23)]
45,,CNc1ccc(C(=O)NC2(C(=O)NCc3ccc(Nc4ccc(F)cc4C(F)(F)F)cn3)CC2)cn1 [(377)]
78,,O=C(N[C@@]1(C(=O)NCc2ccc(Nc3ccc(Cl)cc3C(F)(F)F)cn2)CCOC1)c1cncnc1 [(228)]
,112,O=C(N[C@@]1(C(=O)NCc2ccc(Nc3ccccc3C(F)(F)F)cc2)CCOC1)c1cncc(O)c1 [(87)]
,84,COCC(=O)NC1(C(=O)NCc2ccc(Nc3ccccc3C(F)(F)F)cc2)CC1 [(14)]
43,,CNc1cncc(C(=O)N[C@@]2(C(=O)NCc3ncc(Nc4ccc(F)cc4C(F)(F)F)cc3F)CCOC2)c1 [(260)]

Ki [nM],inhibition at 10 µM [%],Compound
115,101,O=C(N[C@@]1(C(=O)NCc2ncc(Nc3c(F)cccc3C(F)(F)F)cc2F)CCOC1)c1cncnc1 [(158)]
,65,O=C(NC1(C(=O)NCc2ccc(Nc3ccccc3)cc2)CC1)c1cncnc1 [(3)]
2.7,105,Nc1ccc(C(=O)NC2(C(=O)NCc3ccc(Nc4ccc(Br)cc4C(F)(F)F)cn3)CC2)cn1 [(173)]
2.9,110,CC(NC(=O)C1(NC(=O)c2cncnc2)CC1)c1ccc(Nc2ccccc2C(F)(F)F)cn1 (centres unmarked) [(40)]
> 500,94,O=C(Cc1cncnc1)NC1(C(=O)NCc2ccc(Nc3ccccc3C(F)(F)F)cc2)CC1 [(34)]
,99,Cn1ccc(C(=O)NC2(C(=O)NCc3ccc(Nc4ccc(Br)cc4C(F)(F)F)cn3)CC2)cc1=O [(177)]
62,110,COc1cncc(C(=O)N[C@@]2(C(=O)NCc3ccc(Nc4ccccc4C(F)(F)F)cc3)CCOC2)c1 [(92)]
,108,O=C(N[C@@]1(C(=O)NCc2ccc(Nc3ccccc3C(F)(F)F)cc2)CCOC1)c1cncnc1 [(127)]
135,,CNc1ncc(C(=O)N[C@@]2(C(=O)NCc3ccc(Nc4ccc(F)cc4C(F)(F)F)cn3)CCOC2)cn1 [(304)]
,88,O=C1CCC(C(=O)NC2(C(=O)NCc3ccc(Nc4ccccc4C(F)(F)F)cc3)CC2)N1 (centres unmarked) [(5)]
51,,CNc1cncc(C(=O)NC2(C(=O)NCc3ccc(Nc4ccc(F)cc4C(F)(F)F)cn3)CC2)c1 [(270)]
,63,O=C(N[C@@]1(C(=O)NCc2ccc(Nc3ccccc3C(F)(F)F)cc2)CCOC1)c1cccc(Cl)n1 [(67)]
518,,CC(=O)Nc1cncc(C(=O)NC2(C(=O)NCc3ccc(Nc4ccc(F)cc4C(F)(F)F)cn3)CC2)c1 [(249)]
45,104,O=C(NC1(C(=O)NCc2ccc(Nc3ccc(Cl)cc3Cl)cn2)CC1)c1cncnc1 [(166)]
,100,O=C(NC1(C(=O)NCc2ccc(Nc3ccc(Br)cc3C(F)(F)F)cn2)CC1)c1cc(O)nc(O)n1 [(176)]
41,,O=C(N[C@@]1(C(=O)NCc2ccc(Nc3ccc(Cl)cc3C(F)(F)F)cc2)CCOC1)c1cncnc1 [(332)]
,96,O=C(N[C@@]1(C(=O)NCc2ccc(Nc3ccccc3C(F)(F)F)cc2)CCOC1)c1cncs1 [(89)]
,109,O=C(NC1(C(=O)NCc2ccc(Nc3ccccc3C(F)(F)F)cc2)CC1)c1cncc(C(F)(F)F)c1 [(26)]
